Assay results reported in patent publication US6235761A, “Compound, composition and method for treating cancer” (priority 1999, dated 2001).

How the values were obtained:
MX-1 mammary tumor = assay: sc MX-1 mammary tumor in athymic mice (Table 2); assay type: in vivo, human tumor in athymic mice (Ncr-nu)
Experimental: (§1) This Example illustrates the efficacy of penclomedine and 4-demethylpenclomedine in the treatment of cancer. MX-1 mammary tumor xenograft was subcutaneously implanted into mice, and the mice were exposed to the compounds. The testing of the mice was performed following a published procedure. See, e.g., Plowman et al., supra; Geran et al., Cancer Chemother. Rep., Part 2, 1-55 (1972); Developmental Therapeutics Program, Division of Cancer Treatment, NCI, in In Vivo Models 1976-1982, NIH Publication No. 84-2635, Washington D.C., U.S. Govt. Printing Office (1984).
(§2) This Example further illustrates the efficacy of penclomedine and 4-demethylpenclomedine in the treatment of cancer. The compounds were tested in vivo on mice by the procedure set forth in Example 2. The results obtained are set forth in Table 2 and confirm that 4-demethyl-penclomedine is active against cancer, particularly mammary, colon, and renal cancer.
(§3) ^a Athymic mice (Ncr-nu) were implanted either intracranially (ic) with
(§4) […] MX-1 mammary tumor cells or subcutaneously (sc) with fragments of
(§5) human tumors (CAKI-, renal; HT29, colon; MX-1, mammary).
(§6) ^b The difference in the median of time poststaging for tumors to
(§7) double in mass: T (treated mice), C (control mice)

[1] = Human plasma levels of penclomedine and demethylpenclomedine during 5 day penclomedine treatment; assay type: in vivo, human patients
Text: FIG. 1 depicts levels of penclomedine and the demethylpenclomedine metabolite in human plasma, as determined by HPLC chromatographic analysis with uv detection.
FIG. 2 depicts the penclomedine (gray shade) and demethylpenclomedine (white) levels in human plasma on each of five treatment days. Data are from a single patient and are typical. The same ordinate scale is used for both penclomedine and demethylpenclomedine. Pre-infusion levels are depicted without cross hatchings; end of infusion levels are depicted with cross hatchings.
A 1 ml aliquot of tissue homogenate or a […] was acidified with 200 ml of 0.7 M ammonium phosphate pH 2.7, then 3 ml of ethyl acetate was added. This mixture was vortexed, centrifuged and the organic layer was collected. Fifty microliters of DMSO were added, and the ethyl acetate was concentrated to approximately […] with a stream of dry nitrogen. Fifty microliters of acetonitrile were added to this residue, and the resulting solution was analyzed by HPLC. Human plasma was processed identically to mouse plasma with the exception that 500 ml of plasma was extracted. Concentrated cage washings were analyzed by HPLC without further processing.
HPLC Assays: The HPLC system consisted of a Hewlett-Packard Series II 1090 liquid chromatograph with diode array detector (Hewlett-Packard, Palo Alto, Calif.). The column used was an Alltech Adsorbosphere HS C18 5 m 250×4.6 mm column (Alltech Associates, Deerfield, Ill.). The system used a gradient elution consisting of 100% 10 mM ammonium phosphate buffer pH 2.7 progressing to 100% acetonitrile over 25 minutes at 1 ml/min. Detection was performed by means of ultraviolet absorbance at 240 nm as well as by means of radioactivity using a Radiomatic Flo-One/Beta A140 radioactive flow detector (Packard Instrument Co., Downers Grove, Ill.) equipped with a […] and Flo-Scint VI scintillation cocktail at a 2:1 ratio.
This example illustrates the distribution of penclomedine and 4-demethylpenclomedine in human plasma during a 5 day treatment schedule using penclomedine.
Plasma levels of the metabolite and penclomedine were determined in 9 patients during the 5 day treatment schedule. […] Demethylpenclomedine plasma levels were equal to penclomedine plasma levels by 10 min after end of the infusion and rose to 9.5 μM by 7 hrs. […] The ratio of demethylpenclomedine to penclomedine in the post-infusion plasma sample obtained on day 1 of treatment was approximately 1:1; however, impressive accumulation of demethylpenclomedine was noted during the five day treatment schedule and by the final day this ratio was often greater than 10. […] A summary of post-infusion demethylpenclomedine plasma levels determined on each day of treatment for 9 patients is set forth in Table 4.

[2] = test system: mammals, especially humans; assay: Neurotoxicity of penclomedine versus 4-demethylpenclomedine; assay type: in vivo, human; settings: for neurotoxicity versus metabolite levels: administration of penclomedine to patients
Experimental: It has been observed that 4-demethylpenclomedine was present in clinical samples and continued to be present in the plasma for longer than 24 hours.

HT29 colon tumor = assay: sc HT29 colon tumor in athymic mice (Table 2); assay type: in vivo, human tumor in athymic mice (Ncr-nu); settings: for T-C / Tumor-Free Survival/Total: days 14-18
Experimental: as §1, §2, §3, §4, §5, §6, §7

rats = settings: dose related; during or immediately after infusion; cited from earlier work
[3] = test system: patients with advanced solid tumors; settings: cited from earlier work
[4] = cited from earlier work
dogs = settings: cited from earlier work
[5] = 135 mg/kg/dose oral, highest dosage level, days 13-17
[6] = 1 hr i.v. infusion penclomedine 315 mg/m^2
[7] = human plasma, single patient, FIG. 1
[8] = repeated administration of penclomedine
[9] = five day samples, same patient, FIG. 2

Structure (SMILES): COc1nc(C(Cl)(Cl)Cl)c(Cl)c(O)c1Cl [4-Demethylpenclomedine, 3,5-dichloro-2-methoxy-4-hydroxy-6-(trichloromethyl)-pyridine]
- T-C (MX-1 mammary tumor; 90 mg/kg/dose IP, days 12-16): > 41.0 days
- Tumor-Free Survival/Total (MX-1 mammary tumor; 90 mg/kg/dose IP, days 12-16): 3/5
- T-C (MX-1 mammary tumor; 90 mg/kg/dose IP, days 15-19): > 37.2 days
- Tumor-Free Survival/Total (MX-1 mammary tumor; 90 mg/kg/dose IP, days 15-19): 3/5
- T-C (MX-1 mammary tumor; [5]): 36.7 days
- Tumor-Free Survival/Total (MX-1 mammary tumor; [5]): 2/5
- T-C, comparison of the two compounds (MX-1 mammary tumor; Table 2): nearly identical T-C
- activity against MX-1 tumors (T-C) (MX-1 mammary tumor; Table 2): active against MX-1, colon, and renal tumors
- accumulation over the 5 day treatment ([1]; 9 patients): accumulation of metabolite was observed in all 9 patients
- time after end of infusion at which plasma levels equal those of penclomedine [1, 6]: ≤ 10 min
- time present in plasma ([1]; clinical samples): > 24 h
- ratio of demethylpenclomedine to penclomedine in plasma ([1]; final day of five day schedule, often): greater than 10
- persistence in plasma ([1]; five day treatment schedule): persisted in the plasma for an extended period of time
- plasma level time course [1, 7]: continues to increase with time
- drug exposure relative to parent compound [1, 8]: several hundred times that of the parent compound
- plasma level relative to peak plasma level of penclomedine [1, 8]: greater than ten times the peak plasma level of penclomedine
- neurotoxicity versus metabolite levels [2]: the levels of this metabolite increased as toxicity due to penclomedine resolved
- T-C (HT29 colon tumor; 90 mg/kg/dose IP): 6.0 days
- Tumor-Free Survival/Total (HT29 colon tumor; 90 mg/kg/dose IP): 0/5
- activity against colon tumors (T-C) (HT29 colon tumor; Table 2): active against MX-1, colon, and renal tumors

Structure (SMILES): COc1nc(C(Cl)(Cl)Cl)c(Cl)c(OC)c1Cl [Penclomedine, 3,5-dichloro-2,4-dimethoxy-6-(trichloromethyl)pyridine]
- T-C (MX-1 mammary tumor; 135 mg/kg/dose IP, days 12-16): > 41.0 days
- Tumor-Free Survival/Total (MX-1 mammary tumor; 135 mg/kg/dose IP, days 12-16): 5/5
- T-C (MX-1 mammary tumor; 135 mg/kg/dose IP, days 13-17): > 38.5 days
- Tumor-Free Survival/Total (MX-1 mammary tumor; 135 mg/kg/dose IP, days 13-17): 5/5
- T-C (MX-1 mammary tumor; 135 mg/kg/dose IP, days 15-19): > 37.2 days
- Tumor-Free Survival/Total (MX-1 mammary tumor; 135 mg/kg/dose IP, days 15-19): 5/5
- T-C, comparison of the two compounds (MX-1 mammary tumor; Table 2): nearly identical T-C
- survival rate, compared with 4-demethylpenclomedine (MX-1 mammary tumor; Table 2): slightly higher survival rate
- decline of plasma levels after infusion [1, 6]: rapidly declined in an apparently biexponential fashion
- post-infusion plasma level [1, 9]: always less than μM
- pre-infusion plasma level [1, 9]: barely detectable
- plasma level time course [1, 7]: rapidly cleared from plasma
- α of biexponential decay [1, 7]: 3.88 h⁻¹
- k el ([1]; in vivo, iv, human plasma, single patient, FIG. 1, read-out: β of biexponential decay (converted)): 0.000127 s⁻¹
- neurotoxicity in rats (rats): muscle tremors, incoordination, convulsions and reduced activity
- neurotoxicity versus metabolite levels [2]: neurotoxicity did not increase while levels of this metabolite increased to several times the plasma levels of the parent drug
- neurotoxicity to mammals, especially humans ([2]; in vivo): neurotoxic to mammals, especially to humans
- toxicities reported in preclinical and early clinical studies ([3]; human, in vivo): Neurological and hematological toxicities
- principal dose limiting toxicity ([3]; one hour infusion for 5 consecutive days, advanced solid tumors): Neurotoxicity, consisting of dysmetria, ataxia, and vertigo
- detectability in the nervous system ([4]; during the time period of neurologic symptoms, rats, O'Reilly et al.): penclomedine but not its metabolite is detectable in the nervous system
- predominant radioactive species in the brain ([4]; tumor-bearing rats): the predominant radioactive species in the brain was ^14 C-penclomedine
- plasma penclomedine levels associated with severe emesis and seizures (dogs): above 30 μM
- T-C (HT29 colon tumor; 135 mg/kg/dose IP): 1.5 days
- Tumor-Free Survival/Total (HT29 colon tumor; 135 mg/kg/dose IP): 0/5
